Measured values published in patent publication US20240299385A1 (ReWind Therapeutics NV, priority 2021, published 2024).

target: T1, human GPR17 receptor (Homo sapiens, UniProt Q13304); test: Calcium mobilization functional assay (Fluo-8, FLIPR TETRA) in HEK-293 hGPR17 (Gα-q assay); type: cell-based; conditions: antagonism of MDL29,951 (~EC80) induced Ca2+ signal; cell line (HEK-293 hGPR17 or HEK-293 Suchi5 hGPR17) not given
T1 construct: host or cells: HEK-293
Description: HEK-293 cells stably expressing the human GPR17 receptor (HEK-293 hGPR17) developed by Axxam (Bresso, Milan, Italy) were cultured at 37° C. in a humidified atmosphere of 5% CO2. Cells were grown in EMEM supplemented with FBS (10%), Penicillin/Streptomycin (1%), Ultraglutamine I (2 mM), puromycin (0.6 μg/mL), G418 (0.4 mg/mL), zeocin (50 μg/mL). This cell line was used to test the compound antagonistic activity by monitoring the Gα-q based signaling. Signaling via Gα-q leads to mobilization of calcium from internal stores. Elevated intracellular calcium levels can then be measured with calcium-sensitive fluorescent dyes (e.g., Fluo 8-No Wash Dye).
GPR17 activation leads to both an increase in intracellular calcium (via Gα-q) and a decrease in cAMP levels (via Gα-i), implicating that both of these pathways play a role for in vivo function.
Experiments were performed using the below cell lines, as described in part 1: • HEK-293 hGPR17 (used to study the compounds acting via Gα-q pathway) • HEK-293 Suchi5 hGPR17 (used to study the compounds acting via Gα-i pathway, where the Gα-i signaling is switched to a Gα-q signaling thanks to the Gα-i/q chimera Suchi5)
GPR17 activation was able to induce an endoplasmic reticulum calcium (Ca^2+) store release in cytosol which could be measured using the fluorescent Ca^2+ sensitive dye Fluo-8 No Wash Dye as readout.
HEK-293 hGPR17 and HEK-293 Suchi5 hGPR17 were seeded at a density of 15,000 cells/well into poly-D-lysine coated black 384-well plates with clear bottom in complete medium. Cells were incubated overnight at 37° C. in a humidified atmosphere of 5% CO2. Twenty-four hours after seeding, the culture medium was carefully removed manually and the cells were loaded for 60 minutes at room temperature with the Ca^2+ sensitive Fluo-8 No Wash Dye, according to manufacturer's instructions. Cells were then assayed using a fluorometric imaging plate reader (FLIPR^TETRA). Fluorescence (excitation: 470-495 nm; emission: 515-575 nm) was recorded during the experiment. […] After twenty minutes, a second injection of MDL29,951 at ˜EC80 (500 nM for HEK-293 hGPR17 and 2 nM for HEK-293 Suchi5 hGPR17) in assay buffer was performed at the FLIPR^TETRA and the signal of the emitted fluorescence was recorded for additional 2 minutes. All the compound injections and incubations were performed in duplicate. For data quality and data analysis the Screener® 16.0.6 (Genedata) software was used.

T1 sequence (Q13304 whole entry): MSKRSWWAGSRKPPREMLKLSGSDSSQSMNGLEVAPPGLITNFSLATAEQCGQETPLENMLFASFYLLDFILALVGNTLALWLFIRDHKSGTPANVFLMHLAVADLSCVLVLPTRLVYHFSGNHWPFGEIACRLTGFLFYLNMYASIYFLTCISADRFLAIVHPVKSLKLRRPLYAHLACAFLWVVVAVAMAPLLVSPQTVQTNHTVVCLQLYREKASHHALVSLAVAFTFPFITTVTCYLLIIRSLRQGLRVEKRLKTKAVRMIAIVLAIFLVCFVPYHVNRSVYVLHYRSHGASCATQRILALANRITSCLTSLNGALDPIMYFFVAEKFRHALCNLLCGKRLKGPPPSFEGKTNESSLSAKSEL

| SMILES | IC50 [nM] |
| --- | --- |
| O=S(=O)(Nc1cc(F)c(C(F)(F)F)cc1F)c1c[nH]c(-c2ccccc2F)c1 [Cpd 073, N-[2,5-difluoro-4-(trifluoromethyl)phenyl]-5-(2-fluorophenyl)-1H-pyrrole-3-sulfonamide] | < 500 |
| N#Cc1cc(F)c(NS(=O)(=O)c2c[nH]c(-c3ccccc3F)c2)cc1F [Cpd 074, N-(4-cyano-2,5-difluoro-phenyl)-5-(2-fluorophenyl)-1H-pyrrole-3-sulfonamide] | < 500 |
| N#Cc1cc(F)c(NS(=O)(=O)c2c[nH]c(-c3ccccc3)c2F)cc1F [Cpd 076, N-(4-cyano-2,5-difluoro-phenyl)-4-fluoro-5-phenyl-1H-pyrrole-3-sulfonamide] | < 500 |
| N#Cc1cc(F)c(NS(=O)(=O)c2cc(-c3ccccc3)[nH]c2F)cc1F [Cpd 077, N-(4-cyano-2,5-difluoro-phenyl)-2-fluoro-5-phenyl-1H-pyrrole-3-sulfonamide] | 500 to 5000 |
| COc1ccc(F)c(-c2cc(S(=O)(=O)Nc3ccc(C#N)cc3F)c[nH]2)c1 [Cpd 084, N-(4-cyano-2-fluoro-phenyl)-5-(2-fluoro-5-methoxy-phenyl)-1H-pyrrole-3-sulfonamide] | < 500 |
| COc1ccc(-c2cc(S(=O)(=O)Nc3ccc(C#N)cc3F)c[nH]2)c(F)c1 [Cpd 086, N-(4-cyano-2-fluoro-phenyl)-5-(2-fluoro-4-methoxy-phenyl)-1H-pyrrole-3-sulfonamide] | 500 to 5000 |
| COc1cccc(-c2cc(S(=O)(=O)Nc3ccc(C#N)cc3F)c[nH]2)c1F [Cpd 087, N-(4-cyano-2-fluoro-phenyl)-5-(2-fluoro-3-methoxy-phenyl)-1H-pyrrole-3-sulfonamide] | 500 to 5000 |
| N#Cc1ccc(NS(=O)(=O)c2c[nH]c(-c3cc(F)c(F)cc3F)c2)c(F)c1 [Cpd 088, N-(4-cyano-2-fluoro-phenyl)-5-(2,4,5-trifluorophenyl)-1H-pyrrole-3-sulfonamide] | < 500 |
| COc1nccc(F)c1-c1cc(S(=O)(=O)Nc2ccc(C#N)cc2F)c[nH]1 [Cpd 089, N-(4-cyano-2-fluoro-phenyl)-5-(4-fluoro-2-methoxy-3-pyridyl)-1H-pyrrole-3-sulfonamide] | < 500 |
| N#Cc1ccc(NS(=O)(=O)c2c[nH]c(-c3ncccn3)c2)c(F)c1 [Cpd 094, N-(4-cyano-2-fluorophenyl)-5-(pyrimidin-2-yl)-1H-pyrrole-3-sulfonamide] | 5000 to 50000 |
| COc1cccc(OC)c1-c1cc(S(=O)(=O)Nc2ccc(C#N)cc2F)c[nH]1 [Cpd 095, N-(4-cyano-2-fluoro-phenyl)-5-(2,6-dimethoxyphenyl)-1H-pyrrole-3-sulfonamide] | 500 to 5000 |
| N#Cc1ccc(NS(=O)(=O)c2c[nH]c(-c3ccc(C#N)cc3F)c2)c(F)c1 [Cpd 096, N,5-bis(4-cyano-2-fluoro-phenyl)-1H-pyrrole-3-sulfonamide] | 500 to 5000 |
| N#Cc1ccc(NS(=O)(=O)c2c[nH]c(-c3cc(F)cc(F)c3F)c2)c(F)c1 [Cpd 097, N-(4-cyano-2-fluoro-phenyl)-5-(2,3,5-trifluorophenyl)-1H-pyrrole-3-sulfonamide] | 500 to 5000 |
| N#Cc1ccc(NS(=O)(=O)c2c[nH]c(C3CCC3)c2)c(F)c1 [Cpd 098, N-(4-cyano-2-fluorophenyl)-5-cyclobutyl-1H-pyrrole-3-sulfonamide] | 500 to 5000 |
| N#Cc1ccc(NS(=O)(=O)c2c[nH]c(-c3cc(F)cc(F)c3)c2)c(F)c1 [Cpd 104, N-(4-cyano-2-fluoro-phenyl)-5-(3,5-difluorophenyl)-1H-pyrrole-3-sulfonamide] | 500 to 5000 |
| N#Cc1ccc(NS(=O)(=O)c2c[nH]c(-c3cccc(CO)c3F)c2)c(F)c1 [Cpd 107, N-(4-cyano-2-fluoro-phenyl)-5-[2-fluoro-3-(hydroxymethyl)phenyl]-1H-pyrrole-3-sulfonamide] | 500 to 5000 |
| N#Cc1ccc(NS(=O)(=O)c2c[nH]c(-c3cc(CO)ccc3F)c2)c(F)c1 [Cpd 108, N-(4-cyano-2-fluoro-phenyl)-5-[2-fluoro-5-(hydroxymethyl)phenyl]-1H-pyrrole-3-sulfonamide] | 500 to 5000 |

Continued, values first:

| IC50 [nM] | SMILES |
| --- | --- |
| < 500 | Cc1cc(F)c(NS(=O)(=O)c2c[nH]c(-c3ccccc3F)c2)cc1F [Cpd 075, N-(2,5-difluoro-4-methyl-phenyl)-5-(2-fluorophenyl)-1H-pyrrole-3-sulfonamide] |
| 5000 to 50000 | Cn1nccc1-c1cc(S(=O)(=O)Nc2ccc(C#N)cc2F)c[nH]1 [Cpd 078, N-(4-cyano-2-fluoro-phenyl)-5-(2-methylpyrazol-3-yl)-1H-pyrrole-3-sulfonamide] |
| 500 to 5000 | N#Cc1ccc(NS(=O)(=O)c2c[nH]c(-c3ccccc3C(F)(F)F)c2)c(F)c1 [Cpd 079, N-(4-cyano-2-fluoro-phenyl)-5-[2-(trifluoromethyl)phenyl]-1H-pyrrole-3-sulfonamide] |
| 500 to 5000 | COCc1ccccc1-c1cc(S(=O)(=O)Nc2ccc(C#N)cc2F)c[nH]1 [Cpd 080, N-(4-cyano-2-fluoro-phenyl)-5-[2-(methoxymethyl)phenyl]-1H-pyrrole-3-sulfonamide] |
| 500 to 5000 | Cn1ccc(-c2cc(S(=O)(=O)Nc3ccc(C#N)cc3F)c[nH]2)n1 [Cpd 081, N-(4-cyano-2-fluoro-phenyl)-5-(1-methylpyrazol-3-yl)-1H-pyrrole-3-sulfonamide] |
| < 500 | Cc1cccc(F)c1-c1cc(S(=O)(=O)Nc2ccc(C#N)cc2F)c[nH]1 [Cpd 082, N-(4-cyano-2-fluoro-phenyl)-5-(2-fluoro-6-methyl-phenyl)-1H-pyrrole-3-sulfonamide] |
| < 500 | COc1cccc(F)c1-c1cc(S(=O)(=O)Nc2ccc(C#N)cc2F)c[nH]1 [Cpd 083, N-(4-cyano-2-fluoro-phenyl)-5-(2-fluoro-6-methoxy-phenyl)-1H-pyrrole-3-sulfonamide] |
| 500 to 5000 | Cc1cccc(C)c1-c1cc(S(=O)(=O)Nc2ccc(C#N)cc2F)c[nH]1 [Cpd 085, N-(4-cyano-2-fluoro-phenyl)-5-(2,6-dimethylphenyl)-1H-pyrrole-3-sulfonamide] |
| < 500 | N#Cc1ccc(NS(=O)(=O)c2c[nH]c(-c3ncccc3F)c2)c(F)c1 [Cpd 090, N-(4-cyano-2-fluorophenyl)-5-(3-fluoropyridin-2-yl)-1H-pyrrole-3-sulfonamide] |
| < 500 | N#Cc1ccc(NS(=O)(=O)c2c[nH]c(-c3c(F)cccc3F)c2)c(F)c1 [Cpd 091, N-(4-cyano-2-fluoro-phenyl)-5-(2,6-difluorophenyl)-1H-pyrrole-3-sulfonamide] |
| 500 to 5000 | N#Cc1ccc(NS(=O)(=O)c2c[nH]c(-c3ccccc3C(F)F)c2)c(F)c1 [Cpd 093, N-(4-cyano-2-fluoro-phenyl)-5-[2-(difluoromethyl)phenyl]-1H-pyrrole-3-sulfonamide] |
| 500 to 5000 | O=S(=O)(Nc1ccc(C(F)(F)F)nc1)c1c[nH]c(-c2ccccc2)c1 [Cpd 099, 5-phenyl-N-[6-(trifluoromethyl)-3-pyridyl]-1H-pyrrole-3-sulfonamide] |
| 500 to 5000 | Cc1ncccc1NS(=O)(=O)c1c[nH]c(-c2ccccc2)c1 [Cpd 100, N-(2-methyl-3-pyridyl)-5-phenyl-1H-pyrrole-3-sulfonamide] |
| 500 to 5000 | Cc1ccc(NS(=O)(=O)c2c[nH]c(-c3ccccc3)c2)c(C)n1 [Cpd 101, N-(2,6-dimethyl-3-pyridyl)-5-phenyl-1H-pyrrole-3-sulfonamide] |
| < 500 | N#Cc1ccc(NS(=O)(=O)c2c[nH]c(-c3cccs3)c2)c(F)c1 [Cpd 102, N-(4-cyano-2-fluoro-phenyl)-5-(2-thienyl)-1H-pyrrole-3-sulfonamide] |
| < 500 | N#Cc1ccc(NS(=O)(=O)c2c[nH]c(-c3ccsc3)c2)c(F)c1 [Cpd 103, N-(4-cyano-2-fluoro-phenyl)-5-(3-thienyl)-1H-pyrrole-3-sulfonamide] |
| 500 to 5000 | N#Cc1ccc(NS(=O)(=O)c2c[nH]c(-c3cccnc3F)c2)c(F)c1 [Cpd 105, N-(4-cyano-2-fluoro-phenyl)-5-(2-fluoro-3-pyridyl)-1H-pyrrole-3-sulfonamide] |
| 500 to 5000 | N#Cc1ccc(NS(=O)(=O)c2c[nH]c(-c3ccccc3C#N)c2)c(F)c1 [Cpd 106, N-(4-cyano-2-fluoro-phenyl)-5-(2-cyanophenyl)-1H-pyrrole-3-sulfonamide] |
| 5000 to 50000 | O=S(=O)(Nc1cc(F)c(F)cc1F)c1c[nH]c(-c2ccc(F)cc2)c1 [Cpd 109, 5-(4-fluorophenyl)-N-(2,4,5-trifluorophenyl)-1H-pyrrole-3-sulfonamide] |
